Data reported in patent US9926304B2, “1-(arylmethyl)quinazoline-2,4(1H,3H)-diones as PARP inhibitors and the use thereof” (Impact Therapeutics, Inc., priority 2011, dated 2018).

Experiments:
[1] = system: SW620 human colorectal cancer cells; experiment: MTT based cell viability assay: potentiation of the growth inhibiting activity of MMS; conditions: Homo sapiens, SW-620, 120 h, read-out: IC50 (nM), potentiation of the growth inhibiting activity of MMS, SW620 cells, 1.7 μg/ml MMS, 5 days (120 hours), MTT
[2] = system: Human breast cancer cell line T47D; experiment: Cell based caspase-3 activity assay: potentiation of MMS induced apoptosis; conditions: Homo sapiens, T47D, 24 h, T47D cells, 11.1 μg/ml MMS, 24 hours, intracellular caspase-3 activity; read-out: EC50 (nM), potentiation of the apoptosis inducing activity of MMS
Description: Determination of the synergistic potentiation effect of 1-(3-(4-(pyrimidin-2-yl)piperazine-1-carbonyl)benzyl)quinazoline-2,4(1H,3H)-dione and analogs on MMS induced apoptosis using a cell based caspase-3 activity assay
Human breast cancer cell line T47D was used to determine the potentiation effect of PARP inhibitors on the apoptosis inducing activity of DNA damaging anticancer drugs such as MMS. Intracellular caspase-3 activity was used to measure cell apoptosis. The dose response effect of MMS to induce intracellular caspase activity was carefully titrated and the concentration that only induces a minimal level of caspase activity was used to test the potentiation effect of PARP inhibitors. Briefly, T47D cells were grown in DMEM/F12 cell culture medium (Hyclone) supplemented with 0.2 U/ml insulin (Genview) and 10% FBS (Hyclone). A day before experiment, 20000 of T47D cells were seeded to each well of a 96-well cell culture plate and maintained at 37° C. and 5% CO2 in a cell culture incubator overnight. On the day of experiment, cell culture medium was removed. One hundred and eighty μl of fresh medium containing 11.1 μg/ml MMS was added to each well and followed by 20 μl medium containing 10 folds of the concentrations of experimental drugs or reference compounds (ADZ2281 and ABT-888). The serial dilutions of the compounds to be tested and the reference compounds were made in a 1:3 and 1:10 fashion in DMSO. The 10-fold compound solutions were made by mixing 10 μl DMSO serial dilution solutions with 90 μl fresh growth medium. Twenty four hours later, the cells in the 96-well plates were centrifuged at 1000 g for 5 min and the supernatants were removed. Fifty μl lysis buffer (10 mM Tris, pH7.5, 0.1M NaCl, 1 mM EDTA, 0.01% Triton X-100) was added to each well and the plates were shaked horizontally for 30 min at 4° C. After centrifugation at 1000 g at 4° C. for 10 min, 20 μl of supernatant was transferred from each well to a corresponding well in a 384-well black plate. Twenty μl of buffer (20 mM PIPES, pH7.4, 4 mM EDTA and 0.2% CHAPS) containing 20 μM fluorescent caspase-3 substrate ((Ac-DEVD)2-R110, AnaSpec Cat #60304-5) was added to each well afterwards. The plates were shaked to uniformly mix the wells and incubated at 37° C. for 3 h. The fluorescence intensity was measured using the following wavelength: ex: 496 nm, em: 520 nm using a fluorescence plate reader (Varioskan Flash, Thermo Fisher Scientific). The caspase-3 activity induced by the compounds was expressed as a relative fluorescence unit (RFU). The obtained fluorescence readings were analyzed using a commercial graphic software (GraphPad Prism 5) and plotted against the Log value of the compound concentrations. The EC50 values were obtained by fitting the data points with the equation of Y (fluorescence reading)=minimal fluorescence reading+(maximal fluorescence reading−minimal fluorescence reading)/(1+10^(Log EC50−Log C)), where C is the concentration of the testing compound.
The synergistic potentiation effect of compounds on MMS induced apoptosis in T47D cells is expressed as EC50 values and listed in Table 2.

| Compound | IC50 [1] [nM] | EC50 [2] [nM] |
| --- | --- | --- |
| O=C(c1cccc(Cn2c(=O)[nH]c(=O)c3ccccc32)c1)N1CCN(C(=O)c2ccccn2)CC1 [Example 37, 1-(3-(4-(Pyridine-2-carbonyl)piperazine-1-carbonyl)benzyl)quinazoline-2,4(1H,3H)-dione] | > 10000 | 1910 |
| O=C(c1ccc(F)c(Cn2c(=O)[nH]c(=O)c3c(Cl)cccc32)c1)N1CCN(C(=O)c2cccs2)CC1 [Example 171, 5-Chloro-1-(6-fluoro-3-(4-(thiophene-2-carbonyl)piperazine-1-carbonyl)benzyl)quinazoline-2,4(1H,3H)-dione] | 70 | 23 |
| O=C(c1cccc(Cn2c(=O)[nH]c(=O)c3ccccc32)c1)N1CCN(c2ccccc2)CC1 [Example 19, 1-(3-(4-Phenylpiperazine-1-carbonyl)benzyl)quinazoline-2,4(1H,3H)-dione] | > 10000 | > 10000 |
| O=C(c1cccc(Cn2c(=O)[nH]c(=O)c3ccccc32)c1)N1CCN(C(=O)C2CCOCC2)CC1 [Example 13, 1-(3-(4-(Tetrahydro-2H-pyran-4-carbonyl)piperazine-1-carbonyl)benzyl)quinazoline-2,4(1H,3H)-dione] | 727 | 6600 |
| O=C(c1cccc(Cn2c(=O)[nH]c(=O)c3cc(F)ccc32)c1)N1CCN(C(=O)c2cccs2)CC1 [Example 141, 6-Fluoro-1-(3-(4-(thiophene-2-carbonyl)piperazine-1-carbonyl)benzyl)quinazoline-2,4(1H,3H)-dione] | 12 | 13 |
| O=C(c1cc(Cn2c(=O)[nH]c(=O)c3cc(F)ccc32)ccc1F)N1CCN(C(=O)C2CCC2)CC1 [Example 180, 1-(3-(4-(Cyclobutylcarbonyl)piperazine-1-carbonyl)-4-fluorobenzyl)-6-fluoroquinazoline-2,4(1H,3H)-dione] | 3.1 | 1.4 |
| COC(=O)c1cccc(Cn2c(=O)[nH]c(=O)c3ccccc32)c1 [Example 1, 1-(3-Methoxycarbonylbenzyl)quinazoline-2,4(1H,3H)-dione] | > 10000 | > 10000 |
| O=C(c1ccc(Cl)c(Cn2c(=O)[nH]c(=O)c3ccccc32)c1)N1CCN(c2ccccn2)CC1 [Example 58, 1-(6-Chloro-3-(4-(pyridin-2-yl)piperazine-1-carbonyl)benzyl)quinazoline-2,4(1H,3H)-dione] | 171 | 108 |
| O=C(c1cccc(Cn2c(=O)[nH]c(=O)c3cc(Br)ccc32)c1)N1CCN(c2ncccn2)CC1 [Example 88, 6-Bromo-1-(3-(4-(pyrimidin-2-yl)piperazine-1-carbonyl)benzyl)quinazoline-2,4(1H,3H)-dione] | 137 | 67 |
| CCN1CCN(C(=O)c2cccc(Cn3c(=O)[nH]c(=O)c4ccccc43)c2)CC1 [Example 7, 1-(3-(4-Ethylpiperazine-1-carbonyl)benzyl)quinazoline-2,4(1H,3H)-dione] | 5270 | 2660 |
| O=C(c1ccc(F)c(Cn2c(=O)[nH]c(=O)c3c(Cl)cccc32)c1)N1CCN(c2ccccn2)CC1 [Example 173, 5-Chloro-1-(6-fluoro-3-(4-(pyridin-2-yl)piperazine-1-carbonyl)benzyl)quinazoline-2,4(1H,3H)-dione] | 228 | 122 |
| Cc1cccc2c(=O)[nH]c(=O)n(Cc3cccc(C(=O)N4CCN(c5ncccn5)CC4)c3)c12 [Example 226, 8-Methyl-1-(3-(4-(pyrimidin-2-yl)piperazine-1-carbonyl)benzyl)quinazoline-2,4(1H,3H)-dione] | 84 | 24 |
| O=C(c1ccc(F)c(Cn2c(=O)[nH]c(=O)c3c(F)cccc32)c1)N1CCN(C(=O)c2ccco2)CC1 [Example 184, 5-Fluoro-1-(6-fluoro-3-(4-(furan-2-carbonyl)piperazine-1-carbonyl)benzyl)quinazoline-2,4(1H,3H)-dione] | 62 | 18 |
| O=C(c1ccccc1Cn1c(=O)[nH]c(=O)c2ccccc21)N1CCN(c2ncccn2)CC1 [Example 220, 1-(2-(4-(Pyrimidin-2-yl)piperazine-1-carbonyl)benzyl)quinazoline-2,4(1H,3H)-dione] | > 10000 | > 10000 |
| O=C(c1cccc(Cn2c(=O)[nH]c(=O)c3ccccc32)c1)N1CCN(c2nccs2)CC1 [Example 72, 1-(3-(4-(Thiazol-2-yl)piperazine-1-carbonyl)benzyl)quinazoline-2,4(1H,3H)-dione] | 80 | 41 |
| O=C(c1ccc(F)c(Cn2c(=O)[nH]c(=O)c3c(F)cccc32)c1)N1CCN(C(=O)c2cccs2)CC1 [Example 156, 5-Fluoro-1-(6-fluoro-3-(4-(thiophene-2-carbonyl)piperazine-1-carbonyl)benzyl)quinazoline-2,4(1H,3H)-dione] | 28 | 14 |
| O=C(O)c1cc(Cn2c(=O)[nH]c(=O)c3ccccc32)ccc1F [Example 22, 1-(3-Carboxy-4-fluorobenzyl)quinazoline-2,4(1H,3H)-dione] | > 10000 | > 10000 |
| O=C(c1ccc(F)c(Cn2c(=O)[nH]c(=O)c3c(Cl)cccc32)c1)N1CCN(C(=O)C2CCCC2)CC1 [Example 109, 5-Chloro-1-(3-(4-(cyclopentylcarbonyl)piperazine-1-carbonyl)-6-fluorobenzyl)quinazoline-2,4(1H,3H)-dione] | 48 | 23 |
| O=C(c1cccc(Cn2c(=O)[nH]c(=O)c3ccccc32)c1)N1CCN(C(=O)c2cccs2)CC1 [Example 32, 1-(3-(4-(Thiophene-2-carbonyl)piperazine-1-carbonyl)benzyl)quinazoline-2,4(1H,3H)-dione] | 106 | 96 |
| O=C(c1cccc(Cn2c(=O)[nH]c(=O)c3cc(Br)ccc32)c1)N1CCN(C(=O)C2CCCCC2)CC1 [Example 86, 6-Bromo-1-(3-(4-(cyclohexylcarbonyl)piperazine-1-carbonyl)benzyl)quinazoline-2,4(1H,3H)-dione] | 86 | 27 |
| COC(=O)c1cc(Cn2c(=O)[nH]c(=O)c3ccccc32)ccc1F [Example 21, 1-(4-Fluoro-3-methoxycarbonylbenzyl)quinazoline-2,4(1H,3H)-dione] | > 10000 | 5800 |
| O=C(c1ccccc1)N1CCN(C(=O)c2ccc(Cn3c(=O)[nH]c(=O)c4ccccc43)cc2)CC1 [Example 93, 1-(4-(4-Benzoylpiperazine-1-carbonyl)benzyl)quinazoline-2,4(1H,3H)-dione] | > 10000 | > 10000 |
| O=C(c1cccc(Cn2c(=O)[nH]c(=O)c3c(F)cccc32)c1)N1CCN(c2ccccn2)CC1 [Example 130, 5-Fluoro-1-(3-(4-(pyridin-2-yl)piperazine-1-carbonyl)benzyl)quinazoline-2,4(1H,3H)-dione] | 15 | 87 |
| O=C(c1cccc(Cn2c(=O)[nH]c(=O)c3ccccc32)c1Cl)N1CCN(c2ncccn2)CC1 [Example 60, 1-(2-Chloro-3-(4-(pyrimidin-2-yl)piperazine-1-carbonyl)benzyl)quinazoline-2,4(1H,3H)-dione] | > 10000 | > 10000 |
| O=C(c1ccccc1)N1CCN(C(=O)c2cc(Cn3c(=O)[nH]c(=O)c4cc(F)ccc43)ccc2F)CC1 [Example 181, 1-(3-(4-Benzoylpiperazine-1-carbonyl)-4-fluorobenzyl)-6-fluoroquinazoline-2,4(1H,3H)-dione] | 4.9 | 2.4 |
